Results from patent US9121040B2, “Process for rapid anaerobic digestion of biomass using microbes and the production of biofuels therefrom” (priority 2006, dated 2015).
Like-named read-outs stand apart in the source and are kept apart here. Marks after values point to notes of the source that are not given here.

Test system: ruminal microorganisms
Assay: Effect of sulfur reducing agents on gas, volatile fatty acid and alcohol production, timothy hay with ruminal microorganisms (Example 7)
Assay type: cell-based, mixed rumen microorganisms from cows
Conditions: for H2 (% of all gases): 0.32 mmol/flask agent, timothy hay, mean of initial gas CO2 or N2 without added H2; for H2 (% of fermentation gas): molar percentage among gases excluding N2; for NDF remaining (% of DM): neutral detergent fiber after 24 h
Protocol: Initial in vitro experiments used timothy grass hay as substrate. For each digestion experiment, we obtained one-half liter of rumen contents from each of two ruminally-cannulated cows two to four hours after morning feeding. The digesta were mixed and ground in a Waring blender for 1 minute while being maintained under CO2 gas. Fluid was strained through four layers of cheese cloth followed by glass wool to remove large particles. Rumen fluid was added to a bicarbonate or 0.1 M sodium phosphate buffer with mineral salts.
Gas samples were collected continuously in mylar balloons, and gas volumes recorded at various time points. Glass tubing coated with epoxy was pushed into the opening on the mylar balloons. The tubing was connected to luer-lock connectors via nylon tubing. Samples were taken using glass syringes attached to the luer-lock connectors. Samples were stored in gas-tight vials for analysis of composition by GC with thermal conductivity detector. Rates of gas production were determined by fitting an inverted exponential equation.
The pH and reducing potential were determined using standard glass or platinum electrodes respectively, while maintaining the gas composition by keeping the flasks closed to the atmosphere with putty fitted around the electrodes. Liquid samples were collected at designated time points and analyzed by gas chromatography (GC) for alcohols (methanol, ethanol, propanol, butanol) volatile fatty acids (acetate, propionate, butyrate, etc). Rates of alcohol or VFA production were determined by fitting an inverted exponential equation.
True fiber digestibility was determined directly on the residue of digestion by refluxing in pH-neutral detergent solution for one hour, drying at 100° C. overnight and weighing.
An experiment was conducted to determine the effect of adding sulfur reducing agents on production of gases, volatile fatty acids, and alcohols. Twenty treatments were arranged in a 2×2×5 factorial design with factors of initial headspace gas (CO2 or N2), addition of 25 ml H2 gas to the initial headspace (+H2, —H2), or one of five sources of sulfur redox agents (0.32 mmol/flask): Na2SO4, Na2SO3, S^0, Na2S, or none. Samples (0.5 g timothy hay) were incubated for 24 hours and products measured as previously. At the start of the incubation, each 125-ml flask was perfused with respective gas. For treatments receiving added H2, 25 ml of perfused gas (at 1 atm pressure) was removed from the flask headspace and forced into the collection balloon. This removed gas was replaced with H2.

[1] = 24 h, mean of CO2 or N2 without added H2
[2] = mean of CO2 or N2 without added H2

[Na+].[Na+].[S-2] [Na2S]
H2 (% of all gases) (24 h): 0.078^b %
1-propanol [1]: 0 µmol
2Acet + 2Butyr − Propionate (estimated production of H2 equivalent from fermentation of sugar to VFA) [1]: 2660^a μmol
Acetate [1]: 541^a μmol
Acetate:Butyrate, mole ratio [1]: 6.91^a
Acetate:Propion, mole ratio [1]: 2.59
Butyrate [1]: 202^a μmol
CH4 (% of all gases) [1]: 5.04^a %
CH4 (% of fermentation gas) [1]: 14.3^a %
CH4:CO2 (molar ratio) [1]: 0.183^a
CH4:H2 (molar conc. ratio) [1]: 69^a
CH4 production [1]: 335^a μmol
CO2 (% of all gases) [1]: 42.9^b %
CO2 (% of fermentation gas) [1]: 85.5^b %
CO2 production [1]: 1773^ab μmol
Eh [1]: −269^c
Ethanol [1]: 0 µmol
H2 equivalent (H2 + 4 CH4) [1]: 1344^a
H2 production [1]: 5.2^b μmol
Isobutyrate [1]: 13.5^a μmol
Isovalerate [1]: 14.7^a μmol
Propionate [1]: 541^a μmol
Total VFA [1]: 2190^a μmol
VFA-C [1]: 5455^a μmol
pH [1]: 6.47^b
valerate [1]: 19.5^a μmol
H2 (% of fermentation gas) [1]: 0.24^b %
NDF remaining (% of DM) [2]: 35.7^b % of DM

O=S([O-])[O-].[Na+].[Na+] [SO3, Na2SO3]
Eh: −264^bc
H2 (% of all gases) (24 h): 1.39^a %
1-propanol [1]: 5.4^6 μmol
2Acet + 2Butyr − Propionate (estimated production of H2 equivalent from fermentation of sugar to VFA) [1]: 1483^b μmol
Acetate [1]: 293^b μmol
Acetate:Butyrate, mole ratio [1]: 4.89^b
Acetate:Propion, mole ratio [1]: 2.52
Butyrate [1]: 152^b μmol
CH4 (% of all gases) [1]: 0.12^b %
CH4 (% of fermentation gas) [1]: 0.82^b %
CH4:CO2 (molar ratio) [1]: 0.010^b
CH4:H2 (molar conc. ratio) [1]: 0.1^b
CH4 production [1]: 6.6^b μmol
CO2 (% of all gases) [1]: 47.9^ab %
CO2 (% of fermentation gas) [1]: 92.0^a %
CO2 production [1]: 1002^b μmol
Ethanol [1]: 25.8^5 μmol
H2 equivalent (H2 + 4 CH4) [1]: 103^b
H2 production [1]: 76.6^a μmol
Isobutyrate [1]: 9.8^b μmol
Isovalerate [1]: 12.3^b μmol
Propionate [1]: 293^b μmol
Total VFA [1]: 1206^b μmol
VFA-C [1]: 3071^b μmol
pH [1]: 6.72^a
valerate [1]: 2.33^c μmol
Methane production (H2 added at the beginning): ≤ 5 µmol
effect on methane production (each gas composition): strongly inhibited
H2 (% of fermentation gas) [1]: 8.18^a %
NDF remaining (% of DM) [2]: 57.2^a % of DM
valerate (starting with CO2, H2 added): 2.3 µmol
valerate (starting with CO2, H2 not added): 3.0 µmol
valerate (starting with N2, H2 added): 8.3 µmol
valerate (starting with N2, H2 not added): 1.7 µmol
hydrogen production (when H2 was added to initial headspace): -179 µmol

O=S(=O)([O-])[O-].[Na+].[Na+] [SO4, Na2SO4]
Eh: −247^ab
H2 (% of all gases) (24 h): 0.073^b %
1-propanol [1]: 0 µmol
2Acet + 2Butyr − Propionate (estimated production of H2 equivalent from fermentation of sugar to VFA) [1]: 2628^a μmol
Acetate [1]: 538^a μmol
Acetate:Butyrate, mole ratio [1]: 7.00^a
Acetate:Propion, mole ratio [1]: 2.57
Butyrate [1]: 198^a μmol
CH4 (% of all gases) [1]: 5.02^a %
CH4 (% of fermentation gas) [1]: 14.4^a %
CH4:CO2 (molar ratio) [1]: 0.182^a
CH4:H2 (molar conc. ratio) [1]: 85^a
CH4 production [1]: 363^a μmol
CO2 (% of all gases) [1]: 52.1^a %
CO2 (% of fermentation gas) [1]: 85.4^b %
CO2 production [1]: 2298^ab μmol
Ethanol [1]: 0 µmol
H2 equivalent (H2 + 4 CH4) [1]: 1459^a
H2 production [1]: 5.0^b μmol
Isobutyrate [1]: 12.0^a μmol
Isovalerate [1]: 13.0^ab μmol
Propionate [1]: 538^a μmol
Total VFA [1]: 2162^a μmol
VFA-C [1]: 5370^a μmol
pH [1]: 6.45^b
valerate [1]: 16.7^b μmol
H2 (% of fermentation gas) [1]: 0.24^b %
NDF remaining (% of DM) [2]: 36.0^b % of DM

[S] [S^0]
Eh: −249^abc
H2 (% of all gases) (24 h): 0.080^b %
1-propanol [1]: 0 µmol
2Acet + 2Butyr − Propionate (estimated production of H2 equivalent from fermentation of sugar to VFA) [1]: 2840^a μmol
Acetate [1]: 550^a μmol
Acetate:Butyrate, mole ratio [1]: 7.57^a
Acetate:Propion, mole ratio [1]: 2.72
Butyrate [1]: 198^a μmol
CH4 (% of all gases) [1]: 4.61^a %
CH4 (% of fermentation gas) [1]: 13.8^a %
CH4:CO2 (molar ratio) [1]: 0.171^a
CH4:H2 (molar conc. ratio) [1]: 79^a
CH4 production [1]: 334^a μmol
CO2 (% of all gases) [1]: 50.5^a %
CO2 (% of fermentation gas) [1]: 86.0^b %
CO2 production [1]: 1795^ab μmol
Ethanol [1]: 0 µmol
H2 equivalent (H2 + 4 CH4) [1]: 1340^a
H2 production [1]: 5.9^b μmol
Isobutyrate [1]: 12.2^a μmol
Isovalerate [1]: 13.3^ab μmol
Propionate [1]: 550^a μmol
Total VFA [1]: 2287^a μmol
VFA-C [1]: 5634^a μmol
pH [1]: 6.43^b
valerate [1]: 17.1^b μmol
H2 (% of fermentation gas) [1]: 0.22^b %
NDF remaining (% of DM) [2]: 36.5^b % of DM
